Test results: ChEMBL document CHEMBL1201862, “PubChem BioAssay data set” (2004)
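Where inhibition never reached the appropriate level, the endpoint shown equals the highest concentration tested. Otherwise, values were interpolated linearly from a five-concentration, 48-hour dose response in 96-well plates. At the GI50, growth is halved.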 Activity calls are given as the source filed them. Rule as the data show it: active = GI50 up to about 1.1 µM and inactive = higher.

Assays:
Assay in all cases: NCI anticancer screen, dose series, 48 h
[1] = test system: 786-0
[2] = test system: A498
[3] = test system: ACHN
[4] = test system: CAKI-1
[5] = test system: CCRF-CEM
[6] = test system: COLO 205
[7] = test system: DLD-1
[8] = test system: DMS-114
[9] = test system: DMS-273
[10] = test system: HCC 2998
[11] = test system: HCT-15
[12] = test system: HL-60
[13] = test system: HOP-18
[14] = test system: HOP-62
[15] = test system: HT-29
[16] = test system: IGROV-1
[17] = test system: K562
[18] = test system: KM-20L2
[19] = test system: KM12
[20] = test system: LXFL 529
[21] = test system: M14
[22] = test system: MOLT-4
[23] = test system: Malme-3M
[24] = test system: NCI-H226
[25] = test system: NCI-H23
[26] = test system: NCI-H460
[27] = test system: NCI-H522
[28] = test system: OVCAR-3
[29] = test system: OVCAR-4
[30] = test system: OVCAR-5
[31] = test system: OVCAR-8
[32] = test system: RPMI-8226
[33] = test system: RXF 631
[34] = test system: SF-268
[35] = test system: SF-295
[36] = test system: SF-539
[37] = test system: SK-MEL-28
[38] = test system: SK-MEL-2
[39] = test system: SK-MEL-5
[40] = test system: SK-OV-3
[41] = test system: SN12C
[42] = test system: SNB-19
[43] = test system: SNB-75
[44] = test system: SNB-78
[45] = test system: SR
[46] = test system: SW-620
[47] = test system: U-251
[48] = test system: UACC-257
[49] = test system: UACC-62
[50] = test system: UO-31
[51] = test system: A549
[52] = test system: EKVX
[53] = test system: HCT-116
[54] = test system: HOP-92
[55] = test system: LOX IMVI
[56] = test system: M19-MEL
[57] = test system: RXF 393
[58] = test system: TK-10
[59] = test system: XF498

Question: How did the GI50 [1] turn out when COc1cccc(N2C(=O)/C(=C/c3ccc(N(CCC#N)CCC#N)cc3)N=C2c2cc([N+](=O)[O-])ccc2Cl)c1 was run?
Answer: 30.5 µM (inactive)

Question: And the GI50 [2]?
Answer: > 100 µM (inactive)

Question: What about the GI50 [3] of the same compound?
Answer: 44 µM (inactive)

Question: What about the GI50 [4] of the same compound?
Answer: > 100 µM (inactive)

Question: And the GI50 [5]?
Answer: 48.8 µM (inactive)

Question: What about the GI50 [6] of the same compound?
Answer: 14.7 µM (inactive)

Question: And the GI50 [7]?
Answer: 60 µM (inactive)

Question: What about the GI50 [8] of the same compound?
Answer: > 100 µM (inactive)

Question: What about the GI50 [9] of the same compound?
Answer: 38.2 µM (inactive)

Question: And the GI50 [10]?
Answer: 60.5 µM (inactive)

Question: And the GI50 [11]?
Answer: 50.4 µM

Question: What about the GI50 [12] of the same compound?
Answer: 49.8 µM (inactive)

Question: And the GI50 [13]?
Answer: > 100 µM (inactive)

Question: And the GI50 [14]?
Answer: 50.9 µM (inactive)

Question: What about the GI50 [15] of the same compound?
Answer: 47 µM (inactive)

Question: What about the GI50 [16] of the same compound?
Answer: 50.7 µM (inactive)

Question: What about the GI50 [17] of the same compound?
Answer: 34.5 µM (inactive)

Question: What about the GI50 [18] of the same compound?
Answer: 97.9 µM (inactive)

Question: What about the GI50 [19] of the same compound?
Answer: 49.5 µM (inactive)

Question: And the GI50 [20]?
Answer: 67.9 µM (inactive)

Question: And the GI50 [21]?
Answer: 42.8 µM (inactive)

Question: And the GI50 [22]?
Answer: 22.3 µM (inactive)

Question: And the GI50 [23]?
Answer: > 100 µM (inactive)

Question: And the GI50 [24]?
Answer: > 100 µM (inactive)

Question: And the GI50 [25]?
Answer: 89.1 µM (inactive)

Question: What about the GI50 [26] of the same compound?
Answer: 43.5 µM (inactive)

Question: And the GI50 [27]?
Answer: 55.8 µM (inactive)

Question: And the GI50 [28]?
Answer: 35.6 µM (inactive)

Question: What about the GI50 [29] of the same compound?
Answer: > 100 µM (inactive)

Question: And the GI50 [30]?
Answer: 18.5 µM (inactive)

Question: And the GI50 [31]?
Answer: 78.7 µM (inactive)

Question: And the GI50 [32]?
Answer: 68.1 µM (inactive)

Question: And the GI50 [33]?
Answer: > 100 µM (inactive)

Question: What about the GI50 [34] of the same compound?
Answer: > 100 µM (inactive)

Question: What about the GI50 [35] of the same compound?
Answer: 19.7 µM (inactive)

Question: What about the GI50 [36] of the same compound?
Answer: > 100 µM (inactive)

Question: What about the GI50 [37] of the same compound?
Answer: > 100 µM (inactive)

Question: And the GI50 [38]?
Answer: > 100 µM (inactive)

Question: And the GI50 [39]?
Answer: 84.9 µM (inactive)

Question: And the GI50 [40]?
Answer: > 100 µM (inactive)

Question: And the GI50 [41]?
Answer: 87.7 µM (inactive)

Question: What about the GI50 [42] of the same compound?
Answer: > 100 µM (inactive)

Question: What about the GI50 [43] of the same compound?
Answer: 95.5 µM (inactive)

Question: What about the GI50 [44] of the same compound?
Answer: > 100 µM (inactive)

Question: What about the GI50 [45] of the same compound?
Answer: 32.1 µM (inactive)

Question: What about the GI50 [46] of the same compound?
Answer: 33.2 µM (inactive)

Question: And the GI50 [47]?
Answer: 59.2 µM (inactive)

Question: And the GI50 [48]?
Answer: > 100 µM (inactive)

Question: What about the GI50 [49] of the same compound?
Answer: 39.1 µM (inactive)

Question: What about the GI50 [50] of the same compound?
Answer: 82 µM (inactive)

Question: Which GI50 [1] does the source give for Cc1cc(S(=O)(=O)O)c(NC(=O)C(=O)C2C=CCS2(=O)=O)cc1Cl (stereo not drawn) here?
Answer: > 100 µM (inactive)

Question: What about the GI50 [2] of the same compound?
Answer: > 100 µM (inactive)

Question: What about the GI50 [51] of the same compound?
Answer: > 100 µM (inactive)

Question: What about the GI50 [3] of the same compound?
Answer: > 100 µM (inactive)

Question: And the GI50 [4]?
Answer: > 100 µM (inactive)

Question: And the GI50 [5]?
Answer: > 100 µM (inactive)

Question: And the GI50 [6]?
Answer: > 100 µM (inactive)

Question: What about the GI50 [7] of the same compound?
Answer: > 100 µM (inactive)

Question: And the GI50 [8]?
Answer: > 100 µM (inactive)

Question: What about the GI50 [9] of the same compound?
Answer: > 100 µM (inactive)

Question: And the GI50 [52]?
Answer: > 100 µM (inactive)

Question: And the GI50 [10]?
Answer: > 100 µM (inactive)

Question: What about the GI50 [53] of the same compound?
Answer: > 100 µM (inactive)

Question: And the GI50 [11]?
Answer: > 100 µM

Question: What about the GI50 [12] of the same compound?
Answer: > 100 µM (inactive)

Question: What about the GI50 [13] of the same compound?
Answer: > 100 µM (inactive)

Question: And the GI50 [14]?
Answer: > 100 µM (inactive)

Question: And the GI50 [54]?
Answer: > 100 µM (inactive)

Question: And the GI50 [15]?
Answer: > 100 µM (inactive)

Question: And the GI50 [16]?
Answer: > 100 µM (inactive)

Question: And the GI50 [17]?
Answer: > 100 µM (inactive)

Question: What about the GI50 [18] of the same compound?
Answer: > 100 µM (inactive)

Question: And the GI50 [19]?
Answer: > 100 µM (inactive)

Question: And the GI50 [55]?
Answer: > 100 µM (inactive)

Question: What about the GI50 [20] of the same compound?
Answer: > 100 µM (inactive)

Question: What about the GI50 [21] of the same compound?
Answer: > 100 µM (inactive)

Question: What about the GI50 [56] of the same compound?
Answer: > 100 µM (inactive)

Question: What about the GI50 [22] of the same compound?
Answer: > 100 µM (inactive)

Question: And the GI50 [23]?
Answer: > 100 µM (inactive)

Question: And the GI50 [24]?
Answer: > 100 µM (inactive)

Question: What about the GI50 [25] of the same compound?
Answer: > 100 µM (inactive)

Question: What about the GI50 [26] of the same compound?
Answer: > 100 µM (inactive)

Question: And the GI50 [27]?
Answer: > 100 µM (inactive)

Question: What about the GI50 [28] of the same compound?
Answer: > 100 µM (inactive)

Question: And the GI50 [29]?
Answer: > 100 µM (inactive)

Question: What about the GI50 [30] of the same compound?
Answer: > 100 µM (inactive)

Question: And the GI50 [31]?
Answer: > 100 µM (inactive)

Question: And the GI50 [32]?
Answer: > 100 µM (inactive)

Question: What about the GI50 [57] of the same compound?
Answer: > 100 µM (inactive)

Question: And the GI50 [34]?
Answer: > 100 µM (inactive)

Question: What about the GI50 [35] of the same compound?
Answer: > 100 µM (inactive)

Question: And the GI50 [36]?
Answer: > 100 µM (inactive)

Question: And the GI50 [37]?
Answer: > 100 µM (inactive)

Question: And the GI50 [38]?
Answer: > 100 µM (inactive)

Question: And the GI50 [39]?
Answer: > 100 µM (inactive)

Question: What about the GI50 [40] of the same compound?
Answer: > 100 µM (inactive)

Question: What about the GI50 [41] of the same compound?
Answer: > 100 µM (inactive)

Question: What about the GI50 [42] of the same compound?
Answer: > 100 µM (inactive)

Question: And the GI50 [43]?
Answer: > 100 µM (inactive)

Question: What about the GI50 [44] of the same compound?
Answer: > 100 µM (inactive)

Question: And the GI50 [45]?
Answer: > 100 µM (inactive)

Question: What about the GI50 [46] of the same compound?
Answer: > 100 µM (inactive)

Question: And the GI50 [58]?
Answer: > 100 µM (inactive)

Question: What about the GI50 [47] of the same compound?
Answer: > 100 µM (inactive)

Question: And the GI50 [48]?
Answer: > 100 µM (inactive)

Question: What about the GI50 [49] of the same compound?
Answer: > 100 µM (inactive)

Question: What about the GI50 [50] of the same compound?
Answer: > 100 µM (inactive)

Question: What about the GI50 [59] of the same compound?
Answer: > 100 µM (inactive)
